Measurements from patent publication US8486370B2, “Heterocyclic ligands for integrin imaging and therapy” (The Regents of the University of California, priority 2006, dated 2013).
Read-outs that look alike come from different tables or passages of the source.

Tests used:
α4β1 integrin = target: T1, α4β1 integrin (Homo sapiens, UniProt P05556+P13612); test: Molt4 T-cell leukemia adhesion assay (inhibition of α4β1-mediated cell adhesion to CS-1 peptide); type: cell-based
T1 construct: adding a volume of 80 μL consisted of 1.3×10^5 Molt4 cells; endogenous in cells; host or cells: Molt4 T-cell leukemia cells
Source text: α4β1 integrins are cell surface heterodimeric glycoproteins that mediate cell adhesion to vascular cell adhesion molecule-1 (VCAM-1 or CD 106) as well as to extracellular matrix (ECM) protein fibronectin (FN). Integrin expression and function depend on cell activation. The dynamic changes in integrin affinity, avidity, or activation state are implicated in cell migration, survival and apoptosis, cancer development and metastasis. Binding affinities (IC50s) of the ligands were studied in a Molt4 T-cell leukemia adhesion assay by inhibiting the α4β1-mediated cell adhesion to CS-1 peptide ([…]), which is the binding motif of fibronectin to α4β1 receptor.
General Procedure for Cell Adhesion Assay:
96-well plates were prepared by coating them with 5 μg/mL neutravidin for a one-hour period, followed by adding […] biotin-conjugated CS-1 peptide. The wells were then blocked with 1% […] in phosphate buffer saline (PBS) solution, followed by adding a volume of 80 μL consisted of 1.3×10^5 Molt4 cells, and finally different dilutions of tested ligands in binding buffer (1 mM Mn^2+ TBS), were added to each well. To allow binding, the plates were incubated for 30 min at 37° C., followed by washing of unbound cells with PBS. Bound cells were fixed with 10% formalin buffered in phosphate for 30 min and stained with 0.5% crystal violet. After washing and drying at room temperature, the dye was dissolved in 1% SDS, and absorbance at 570 nm was measured using a 96-well TECAN OD UV/Vis spectrophotometer. Inhibition was calculated as a percentage resulting from the concentration-dependent curve.

[1] = xenograft model, optical and radioimaging; cited from earlier work
[2] = compound by itself; cited from earlier work

T1 sequence (P13612 34-1032): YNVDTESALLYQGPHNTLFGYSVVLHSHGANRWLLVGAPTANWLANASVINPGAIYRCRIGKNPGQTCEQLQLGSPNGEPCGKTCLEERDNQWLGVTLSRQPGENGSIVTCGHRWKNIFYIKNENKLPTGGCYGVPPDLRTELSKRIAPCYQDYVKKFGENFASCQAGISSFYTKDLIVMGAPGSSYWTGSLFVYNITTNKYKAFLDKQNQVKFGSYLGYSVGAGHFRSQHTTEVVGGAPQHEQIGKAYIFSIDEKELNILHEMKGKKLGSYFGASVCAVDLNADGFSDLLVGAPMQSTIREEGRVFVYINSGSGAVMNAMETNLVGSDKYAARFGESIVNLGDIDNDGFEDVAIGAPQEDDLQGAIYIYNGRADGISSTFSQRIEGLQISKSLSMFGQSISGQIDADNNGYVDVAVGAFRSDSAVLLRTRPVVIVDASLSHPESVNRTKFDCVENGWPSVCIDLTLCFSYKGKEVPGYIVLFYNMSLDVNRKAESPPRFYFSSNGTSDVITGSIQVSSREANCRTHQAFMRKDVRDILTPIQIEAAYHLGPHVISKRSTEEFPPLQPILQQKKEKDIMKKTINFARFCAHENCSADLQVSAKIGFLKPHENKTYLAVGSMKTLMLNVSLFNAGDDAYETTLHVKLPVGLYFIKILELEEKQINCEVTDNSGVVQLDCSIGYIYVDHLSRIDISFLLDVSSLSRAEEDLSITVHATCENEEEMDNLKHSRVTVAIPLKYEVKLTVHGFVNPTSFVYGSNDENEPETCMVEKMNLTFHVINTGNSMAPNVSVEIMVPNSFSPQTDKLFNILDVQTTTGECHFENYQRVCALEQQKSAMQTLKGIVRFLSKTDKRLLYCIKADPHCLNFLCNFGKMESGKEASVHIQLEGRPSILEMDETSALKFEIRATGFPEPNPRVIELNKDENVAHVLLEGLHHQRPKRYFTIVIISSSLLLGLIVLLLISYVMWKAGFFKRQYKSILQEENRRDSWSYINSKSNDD
T1 sequence (P05556 21-798): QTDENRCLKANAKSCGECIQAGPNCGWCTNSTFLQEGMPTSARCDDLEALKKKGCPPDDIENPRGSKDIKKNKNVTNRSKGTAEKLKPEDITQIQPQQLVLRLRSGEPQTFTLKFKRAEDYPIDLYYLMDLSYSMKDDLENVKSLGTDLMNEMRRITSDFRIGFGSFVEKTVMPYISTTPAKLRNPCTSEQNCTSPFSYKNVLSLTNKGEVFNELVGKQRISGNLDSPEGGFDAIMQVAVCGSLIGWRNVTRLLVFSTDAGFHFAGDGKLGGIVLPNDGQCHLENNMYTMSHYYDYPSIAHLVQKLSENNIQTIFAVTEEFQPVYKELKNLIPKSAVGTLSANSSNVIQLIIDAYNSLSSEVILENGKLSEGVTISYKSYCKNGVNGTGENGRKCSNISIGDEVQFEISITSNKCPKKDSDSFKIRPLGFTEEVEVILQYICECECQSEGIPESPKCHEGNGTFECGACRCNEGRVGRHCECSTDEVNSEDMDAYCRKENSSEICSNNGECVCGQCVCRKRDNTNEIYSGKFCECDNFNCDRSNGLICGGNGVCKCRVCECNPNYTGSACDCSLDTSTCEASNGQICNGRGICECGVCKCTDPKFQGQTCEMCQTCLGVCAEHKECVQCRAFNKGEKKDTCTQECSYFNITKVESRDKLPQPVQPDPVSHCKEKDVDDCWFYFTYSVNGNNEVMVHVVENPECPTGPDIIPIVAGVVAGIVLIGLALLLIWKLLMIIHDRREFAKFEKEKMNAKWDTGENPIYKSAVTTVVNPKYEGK

Compound	IC50 (α4β1 integrin) [nM]	other results
NC(=O)C1(NC(=O)[C@H](CCCC(=O)O)NC(=O)[C@H](CCCCNC(=O)/C=C/c2cccnc2)NC(=O)c2ccc(Nc3nc4cc(Br)ccc4[nH]3)cc2)CCCCC1 [KLCA12]		IC50 (α4β1 integrin; Molt4 cells, adhesion to biotin-conjugated CS-1 peptide, 1 mM Mn2+ TBS, 30 min at 37° C.): 0.115 nM
Cc1cccc2oc(Nc3ccc(CC(=O)NC(CCCCNC(=O)C=Cc4cccnc4)C(=O)NC(CCCC(=O)O)C(=O)NC4(C(N)=O)CCCCC4)cc3)nc12 (stereo not drawn) [KLCA15]	4	
Cc1ccccc1NC(=O)Nc1ccc(CC(=O)N[C@@H](CCCCNC(=O)/C=C/c2cccnc2)C(=O)N[C@@H](CCCC(=O)O)C(=O)NC2(C(N)=O)CCCCC2)cc1 [LLP2A]		uptake in the kidneys [1]: rather high uptake in the kidneys; water solubility [2]: not very water soluble

Further lines, with some results ahead:

IC50 (α4β1 integrin) [nM]	Compound	other results
0.053	NC(=O)C1(NC(=O)C(CCCC(=O)O)NC(=O)C(CCCCNC(=O)C=Cc2cccnc2)NC(=O)Cc2ccc(Nc3nc4ccccc4s3)cc2)CCCCC1 (stereo not drawn) [KLCA14]	
2	NC(=O)C1(NC(=O)C(CCCC(=O)O)NC(=O)C(CCCCNC(=O)C=Cc2cccnc2)NC(=O)Cc2ccc(Nc3nc4ccccc4o3)cc2)CCCCC1 (stereo not drawn) [KLCA16]	
